From patent US4471117A, “3,4-Dihydro-2H-pyrimido(2,1-b)benzothiazoles” (Janssen Pharmaceutica N.V., priority 1980, dated 1984)
pIC50: −log10 of the molar value. Counter-ions that a name gives are not always drawn. Like-named read-outs stand apart in the source and are kept apart here.

How the values were obtained:
[1] = molecular target: T1, monoamine oxidase (type A, tryptamine substrate) (Rattus norvegicus, UniProt P21396); experiment: In-vitro monoamine oxidase inhibition, [14C]tryptamine as substrate; format: biochemical; conditions: rat brain monoamine oxidase extract, 37° C., 20 minutes, pH 7.4, read-out: I.C.50 -value using as substrate [14C]tryptamine
T1 sequence (P21396 1-526): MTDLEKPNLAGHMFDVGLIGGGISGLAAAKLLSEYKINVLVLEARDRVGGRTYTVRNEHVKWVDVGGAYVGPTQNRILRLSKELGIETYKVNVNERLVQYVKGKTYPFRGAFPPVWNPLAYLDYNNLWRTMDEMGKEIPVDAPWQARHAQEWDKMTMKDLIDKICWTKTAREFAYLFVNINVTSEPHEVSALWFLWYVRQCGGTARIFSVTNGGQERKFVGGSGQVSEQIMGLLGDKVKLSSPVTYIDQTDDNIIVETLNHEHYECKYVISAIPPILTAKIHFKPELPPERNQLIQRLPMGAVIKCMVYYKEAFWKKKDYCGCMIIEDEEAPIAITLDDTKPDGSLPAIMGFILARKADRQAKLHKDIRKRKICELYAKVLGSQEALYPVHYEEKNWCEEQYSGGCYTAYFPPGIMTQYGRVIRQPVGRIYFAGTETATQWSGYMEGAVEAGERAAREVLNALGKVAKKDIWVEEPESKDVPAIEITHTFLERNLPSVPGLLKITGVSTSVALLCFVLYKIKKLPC

[2] = molecular target: T2, monoamine oxidase (type B, β-phenylethylamine substrate) (Rattus norvegicus, UniProt P19643); experiment: In-vitro monoamine oxidase inhibition, [14C]phenylethylamine hydrochloride as substrate; format: biochemical; conditions: rat brain monoamine oxidase extract, 37° C., 20 minutes, pH 7.4, read-out: I.C.50 -value using as substrate [14C]phenylethylamine.HCl
T2 sequence (P19643 1-520): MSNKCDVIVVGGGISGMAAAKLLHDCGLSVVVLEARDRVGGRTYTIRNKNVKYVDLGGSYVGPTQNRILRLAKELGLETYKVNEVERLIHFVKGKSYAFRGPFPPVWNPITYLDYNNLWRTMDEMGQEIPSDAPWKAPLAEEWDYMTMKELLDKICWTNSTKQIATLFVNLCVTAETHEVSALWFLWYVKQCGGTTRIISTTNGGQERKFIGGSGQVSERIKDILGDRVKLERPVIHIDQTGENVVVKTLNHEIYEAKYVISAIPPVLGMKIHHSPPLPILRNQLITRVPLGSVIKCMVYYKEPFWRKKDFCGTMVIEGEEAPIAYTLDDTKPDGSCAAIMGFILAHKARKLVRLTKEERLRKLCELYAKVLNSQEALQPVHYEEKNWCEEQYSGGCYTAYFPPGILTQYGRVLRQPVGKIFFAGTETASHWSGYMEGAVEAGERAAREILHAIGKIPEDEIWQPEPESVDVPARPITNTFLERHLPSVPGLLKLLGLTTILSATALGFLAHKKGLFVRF

| pIC50 ([1]; Table 1) | pIC50 ([2]; Table 1) | pIC50 ([1]; Table 2) | pIC50 ([2]; Table 2) | Compound |
| --- | --- | --- | --- | --- |
| 7.70 | 5.92 |  |  | CCCc1ccc2c(c1)N1CCCN=C1S2 [7-C3 H7] |
| 4.70 | 7.47 |  |  | COc1cc(CNc2ccc3c(c2)SC2=NCCCN23)cc(OC)c1OC [8-NHCH2 [3,4,5-(OCH3)3C6 H2]] |
| 8.30 | 6.92 |  |  | c1cc2c(cc1NC1CCCC1)N1CCCN=C1S2 [7-NHc.C5 H9] |
|  |  | 7.96 | 4.35 | CC[N+]1=C2Sc3ccc(NC(C)C)cc3N2CCC1 |
| 7.19 | < 4.00 |  |  | Cc1ccc(C(C)(C)C)c2c1N1CCCN=C1S2 [6-CH3,9-C(CH3)3] |
| 7.52 | 5.05 |  |  | c1ccc2cc3c(cc2c1)SC1=NCCCN13 [7,8-(CHCHCHCH)] |
| 6.60 | 7.19 |  |  | COc1ccc(CNc2ccc3c(c2)N2CCCN=C2S3)cc1 [7-NHCH2 (4-OCH3C6 H4)] |
| 8.47 | 6.52 |  |  | CCC(CC)Nc1ccc2c(c1)N1CCCN=C1S2 [7-NHCH(C2 H5)2, N-(1-ethylpropyl)-3,4-dihydro-2H-pyrimido[2,1-b]benzothiazol-7-amine] |
| 8.52 | 4.00 |  |  | CCNc1cccc2c1SC1=NCCCN12 [9-NHC2 H5, N-ethyl-3,4-dihydro-2H-pyrimido[2,1-b]benzothiazol-9-amine] |
| 6.00 | 7.70 |  |  | Cc1ccc(CNc2ccc3c(c2)SC2=NCCCN23)cc1 [8-NHCH2 (4-CH3C6 H4)] |
| 7.49 | 6.59 |  |  | CCCCc1ccc2c(c1)SC1=NCCCN12 [8-C4 H9] |
|  |  | 6.60 | 6.42 | C=CC[N+]1=C2Sc3ccc(CCCCCCCCC)cc3N2CCC1 |
| 6.07 | 4.92 |  |  | NC(=O)Nc1ccc2c(c1)N1CCCN=C1S2 [Example 7-NHCONH2, N-(3,4-dihydro-2H-pyrimido[2,1-b]benzothiazol-7-yl)urea] |
| 6.46 | 4.05 |  |  | Nc1cccc2c1SC1=NCCCN12 [Example 9-NH2, 3,4-dihydro-2H-pyrimido[2,1-b]benzothiazol-9-amine dihydrochloride] |
| 8.07 | 7.30 |  |  | c1cc2c(cc1C1CCCCC1)SC1=NCCCN12 [8-c.C6 H11] |
| 4.70 | 6.80 |  |  | CCOC(=O)C(=CNc1ccc2c(c1)SC1=NCCCN12)C(=O)OCC [8-NHCHC(COOEt)2] |
| 7.05 | 4.70 |  |  | CC(C)Nc1ccc2c(c1)SC1=NCCCN12 [8-NHi.C3 H7] |
| 6.92 | 5.60 |  |  | O=C(c1ccccc1)c1ccc2c(c1)N1CCCN=C1S2 [7-COC6 H5] |
